Results on three compounds are retold here after patent publication US5688938A, “Calcium receptor-active molecules” (priority 1995, dated 1997).

“Also recorded” adds a separate entry of the source. Where only a bound is given, the exact number is not on record here.

What all share (format): cell-based
Assay [1] deals with osteoclast calcium receptor. Nature of the assay: [Ca^2+]i (indo-1) in rat osteoclasts.
Assay [2] has as its target T1, parathyroid cell calcium receptor (Bos taurus, UniProt P35384).
T1 sequence (P35384 21-1085 limits assumed): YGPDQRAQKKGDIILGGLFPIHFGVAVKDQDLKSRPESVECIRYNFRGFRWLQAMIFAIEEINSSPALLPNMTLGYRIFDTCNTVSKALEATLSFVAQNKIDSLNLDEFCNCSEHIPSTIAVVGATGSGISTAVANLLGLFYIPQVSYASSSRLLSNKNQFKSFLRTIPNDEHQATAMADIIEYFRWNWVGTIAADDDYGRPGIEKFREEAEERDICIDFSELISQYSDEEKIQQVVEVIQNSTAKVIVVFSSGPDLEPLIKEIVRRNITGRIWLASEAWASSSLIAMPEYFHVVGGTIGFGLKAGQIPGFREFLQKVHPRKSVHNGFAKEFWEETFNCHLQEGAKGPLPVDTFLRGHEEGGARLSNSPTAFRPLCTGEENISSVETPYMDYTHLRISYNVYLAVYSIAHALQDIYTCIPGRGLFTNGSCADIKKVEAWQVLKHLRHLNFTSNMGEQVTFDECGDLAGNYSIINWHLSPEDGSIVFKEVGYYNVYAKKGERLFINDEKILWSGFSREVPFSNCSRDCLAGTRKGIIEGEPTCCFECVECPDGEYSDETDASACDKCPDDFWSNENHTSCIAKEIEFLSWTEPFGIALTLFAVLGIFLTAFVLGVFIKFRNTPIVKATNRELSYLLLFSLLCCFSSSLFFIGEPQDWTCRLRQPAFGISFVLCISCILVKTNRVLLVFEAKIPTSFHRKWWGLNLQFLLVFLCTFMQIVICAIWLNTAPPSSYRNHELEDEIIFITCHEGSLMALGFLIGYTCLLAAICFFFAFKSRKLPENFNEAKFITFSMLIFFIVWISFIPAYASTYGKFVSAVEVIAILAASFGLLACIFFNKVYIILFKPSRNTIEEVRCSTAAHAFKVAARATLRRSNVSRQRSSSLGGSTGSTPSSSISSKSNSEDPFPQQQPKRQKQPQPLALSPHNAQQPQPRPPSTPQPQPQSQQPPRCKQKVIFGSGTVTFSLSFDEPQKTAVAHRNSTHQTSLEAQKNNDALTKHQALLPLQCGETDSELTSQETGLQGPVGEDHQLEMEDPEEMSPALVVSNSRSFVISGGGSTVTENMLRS
The experiment in a line: cell-based.

The target of assay [3] is T2, human parathyroid cell calcium receptor (Homo sapiens, UniProt P41180).
T2 construct: cRNA injected in Xenopus oocytes
T2 sequence (P41180 20-1078 R990G/E1011Q): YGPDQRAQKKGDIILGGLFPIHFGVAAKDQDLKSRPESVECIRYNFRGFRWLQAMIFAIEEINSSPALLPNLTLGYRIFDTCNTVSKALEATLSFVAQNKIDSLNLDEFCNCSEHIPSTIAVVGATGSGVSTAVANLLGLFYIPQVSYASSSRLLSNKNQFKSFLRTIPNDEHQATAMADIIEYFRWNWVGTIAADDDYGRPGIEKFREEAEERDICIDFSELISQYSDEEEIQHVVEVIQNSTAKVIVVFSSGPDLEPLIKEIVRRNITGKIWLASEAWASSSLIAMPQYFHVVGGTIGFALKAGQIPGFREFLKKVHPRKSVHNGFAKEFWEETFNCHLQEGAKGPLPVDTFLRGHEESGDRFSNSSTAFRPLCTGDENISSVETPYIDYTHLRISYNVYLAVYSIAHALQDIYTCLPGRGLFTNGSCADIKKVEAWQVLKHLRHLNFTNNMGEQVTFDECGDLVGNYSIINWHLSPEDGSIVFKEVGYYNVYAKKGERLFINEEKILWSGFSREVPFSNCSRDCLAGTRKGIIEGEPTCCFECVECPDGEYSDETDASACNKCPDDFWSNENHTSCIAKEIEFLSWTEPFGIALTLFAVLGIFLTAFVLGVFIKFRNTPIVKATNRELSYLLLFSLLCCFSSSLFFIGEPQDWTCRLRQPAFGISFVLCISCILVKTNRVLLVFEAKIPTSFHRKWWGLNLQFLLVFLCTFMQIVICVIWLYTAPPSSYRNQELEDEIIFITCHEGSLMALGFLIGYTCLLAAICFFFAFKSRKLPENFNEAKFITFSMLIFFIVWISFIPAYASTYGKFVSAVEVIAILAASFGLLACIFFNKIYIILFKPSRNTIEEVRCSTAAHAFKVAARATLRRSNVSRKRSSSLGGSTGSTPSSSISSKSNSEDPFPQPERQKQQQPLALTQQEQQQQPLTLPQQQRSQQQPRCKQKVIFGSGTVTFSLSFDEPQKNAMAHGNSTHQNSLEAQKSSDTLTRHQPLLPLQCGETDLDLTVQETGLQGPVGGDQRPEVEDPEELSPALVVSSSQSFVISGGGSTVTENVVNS
Nature of the assay: Cl^- current in Xenopus oocytes expressing cloned human parathyroid calcium receptor. As to conditions: for Cl^- current: 0.3 mM extracellular Ca^2+, NPS 019 3 to 30 μM. As for the experimental part:
Representative cDNA inserts for both size classes were subcloned into the plasmid vector pBluescript SK. Linearization followed by in vitro transcription using T7 RNA polymerase produced cRNA transcripts. The cRNA transcripts were injected into Xenopus oocytes (150 ng/μl RNA; 50 nl/oocyte) for functional analysis. Following incubation periods of 2-4 days, the oocytes were assayed for the presence of functional calcium receptors. Both clone types gave rise to functional calcium receptors as assessed by the stimulation of calcium-activated chloride currents upon addition of appropriate calcium receptor agonists. […] Thus, both clones encode a functional, human parathyroid cell calcium receptor.
Xenopus oocytes were injected with pHuPCaR 5.2, the 5.2 Kb cDNA encoding a parathyroid cell calcium receptor derived from a human parathyroid cell adenoma. (See Example 27.) After two to three days, Cl^- currents were measured in the oocytes using a two-electrode voltage clamp.

In assay [4] the target is T3, bovine parathyroid cell calcium receptor (Bos taurus, UniProt P35384).
T3 construct: expressed in transfected cells; host or cells: Xenopus laevis oocytes injected with cRNA from BoPCaR 1
T3 sequence (P35384 21-1085 limits assumed): T1 sequence (P35384 21-1085 limits assumed)
Nature of the assay: Cl^- current in Xenopus oocytes expressing BoPCaR 1. As for the experimental part: These responses are mediated by the following series of biochemical events:
Xenopus oocytes were injected with BoPCaR 1, the 5.3 Kb cDNA encoding a bovine parathyroid cell calcium receptor as described in Example 25. After two to three days, Cl^- currents were examined in the oocytes using a two-electrode voltage clamp.
Xenopus oocytes were injected with BoPCaR 1 as described in Example 25. After two to three days, Cl^- currents were examined in the oocytes using two electrode voltage clamp.

`NCCCNCCCCNCCCNCCCNCCCNC(=O)Cc1c[nH]c2ccccc12` [NPS 019, reference compound]: the EC50 (as a rule, the concentration that produces a half-maximal response) is more than 300 µM in assay [1] (Table 6, rat osteoclasts) and 40 µM in assay [2] (Table 6, bovine parathyroid cells, read-out: EC50 PARATHYROID). For the same compound, the “Cl^- current response in absence of extracellular Ca^2+” value (“Cl^- current response in absence” for short) in assay [3] and in assay [4] was “persisted” throughout. The “Cl^- current” value in assay [3] is “evoked increases in the Cl^- current”; in assay [4] (1 mM extracellular Ca^2+), “oscillatory increases in the Cl^- current”.
In the case of `COc1cccc([C@@H](C)NCCCc2ccccc2Cl)c1` [NPS R-568, (R)-(+)-N-[3-(2-chlorophenyl)propyl]-α-methyl-3-methoxybenzylamine], in assay [2] (no extracellular Ca^2+, NPS R-467 30 μM), the “[Ca^2+]i response in Ca^2+-free buffer” value was “fails to evoke increases in [Ca^2+ ]i”. Also, in assay [3], the “Cl^- current response in absence” value was “abolished” and the “Cl^- current” value is given as “evoked increases in the Cl^- current”. The “activation of oocyte-expressed human receptor” value in assay [3] (pHuPCaR 5.2 and 4.0) is reported as “activated the oocyte-expressed receptor at about the same concentrations”. Moreover, in assay [4], the “Cl^- current response in absence” value is reported as “abolished”, the “effect on concentration-response curve of NPS 019” value is on record as “shifts the concentration-response curve of NPS 019 to the left” and the “effect on responses to submaximal extracellular Ca^2+” value is listed as “potentiated the responses”.
In the case of `NC[C@@H]1O[C@H](O[C@H]2[C@@H](O)[C@H](O[C@@H]3[C@@H](O)[C@H](N)C[C@H](N)[C@H]3O[C@H]3O[C@H](CN)[C@@H](O)[C@H](O)[C@H]3N)O[C@@H]2CO)[C@H](N)[C@@H](O)[C@@H]1O` [Neomycin], in assay [1], the “effect on osteoclast response to extracellular Ca^2+” value is “did not block the increase” and the “increase in [Ca^2+]i in osteoclasts” value is “failed to evoke any increase in [Ca^2+ ]i; also recorded: Neither neomycin (10 mM) nor spermine (10 or 20 mM) caused increases”. Moreover, the “increase in [Ca^2+]i in osteoclasts or effect on basal” value in assay [1] (neomycin B 5 mM) was “without effect on basal [Ca^2+ ]i”. Moreover, in assay [4] (Ca^2+ 5 mM, Mg^2+ 1.0-20 mM, Gd^3+ 600 μM, neomycin 200 μM), the inward currents entry is reported as “large inward currents”.
